Consider 44 compounds from ChEMBL document CHEMBL1149183, “Novel benzo[1,4]diazepin-2-one derivatives as endothelin receptor antagonists” (J Med Chem, 2004).

In test [1] the target is T1, Endothelin receptor type B (Homo sapiens, UniProt P24530).
T1 sequence (P24530 whole entry): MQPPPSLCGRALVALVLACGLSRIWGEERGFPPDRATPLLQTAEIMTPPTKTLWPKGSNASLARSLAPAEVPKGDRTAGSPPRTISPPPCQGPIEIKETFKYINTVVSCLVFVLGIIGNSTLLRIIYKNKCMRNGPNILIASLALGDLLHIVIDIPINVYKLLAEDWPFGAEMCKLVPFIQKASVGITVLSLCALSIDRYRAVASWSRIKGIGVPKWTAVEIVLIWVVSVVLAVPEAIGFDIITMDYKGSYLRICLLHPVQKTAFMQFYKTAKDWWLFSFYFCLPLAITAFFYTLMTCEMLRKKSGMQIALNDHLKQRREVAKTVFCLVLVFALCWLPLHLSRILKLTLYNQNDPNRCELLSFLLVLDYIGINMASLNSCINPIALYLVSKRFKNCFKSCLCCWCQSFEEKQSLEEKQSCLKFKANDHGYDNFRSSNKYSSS
In words: Antagonist activity towards human recombinant Endothelin B receptor expressed in chinese hamster ovary (CHO) cells determined using [125I]ET1 as radioligand. Format: functional, cell-based.

A further test addresses T2, Endothelin-1 receptor (Homo sapiens, UniProt P25101).
T2 sequence (P25101 whole entry): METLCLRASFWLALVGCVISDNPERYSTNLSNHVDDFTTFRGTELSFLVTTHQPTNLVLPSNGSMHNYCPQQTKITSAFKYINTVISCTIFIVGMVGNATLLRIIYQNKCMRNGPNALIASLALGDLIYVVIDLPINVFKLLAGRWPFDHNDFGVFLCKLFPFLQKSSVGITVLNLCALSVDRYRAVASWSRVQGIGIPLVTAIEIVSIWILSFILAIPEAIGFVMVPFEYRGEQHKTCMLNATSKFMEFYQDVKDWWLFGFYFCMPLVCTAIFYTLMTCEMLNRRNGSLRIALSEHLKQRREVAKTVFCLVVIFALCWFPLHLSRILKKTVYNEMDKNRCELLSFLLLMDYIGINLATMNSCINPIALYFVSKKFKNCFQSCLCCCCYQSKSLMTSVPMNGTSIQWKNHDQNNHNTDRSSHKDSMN
In words: Antagonist activity towards human recombinant Endothelin A receptor expressed in chinese hamster ovary (CHO) cells determined using [125I]ET1 as radioligand. The format is functional, cell-based.

As a reminder, the IC50 is the concentration at which inhibition is half-maximal. As for `Cc1cc(C)nc(O[C@H](C(=O)O)[C@@]2(c3ccccc3)NCc3c(C(=O)O)nc(C)n3-c3ccccc32)n1` (racemic), the IC50 in test [1] worked out at 711 nM; on Endothelin-1 receptor it was 604 nM. For the compound `Cc1cc(C)nc(O[C@H](C(=O)O)[C@@]2(c3ccccc3)NCC(=O)N(Cc3ccccc3C)c3ccccc32)n1` (racemic), the IC50 amounted to 55 nM in test [1] and 8.9 nM at Endothelin-1 receptor. The like results for `Cc1cc(C)nc(O[C@H](C(=O)O)[C@@]2(c3ccccc3)NCC(=O)N(CCCc3ccccc3)c3ccccc32)n1` (racemic) were, in that order, 18.3 nM and 17.1 nM. The like results for `Cc1cc(C)cc(O[C@H](C(=O)O)[C@@]2(c3ccccc3)NCC(=O)N(Cc3c(Cl)cccc3Cl)c3ccccc32)c1` (racemic) were, in that order, 109 nM and 20.5 nM. The like results for `O=C(O)[C@@H](Oc1ccccc1)[C@@]1(c2ccccc2)NCC(=O)N(Cc2c(Cl)cccc2Cl)c2ccccc21` (racemic) were, in that order, 3700 nM and 211 nM. For `Cc1cc(C)nc(O[C@H](C(=O)O)[C@@]2(c3ccccc3)NCC(=O)N(Cc3cc(F)cc(F)c3)c3ccccc32)n1` (racemic), the IC50 was found to be 13.1 nM in test [1] and 7.9 nM at Endothelin-1 receptor. The like results for `CCc1cc(CC)nc(O[C@H](C(=O)O)[C@@]2(c3ccccc3)NCC(=O)N(C)c3ccccc32)n1` (racemic) were, in that order, 654 nM and 20.5 nM.

For `Cc1cc(C)nc(O[C@H](C(=O)O)[C@@]2(c3ccccc3)NCc3nnc(CC(=O)O)n3-c3ccccc32)n1` (racemic), the figures for the IC50 (in test [1]; on Endothelin-1 receptor) were 261 nM and 58.8 nM, respectively.

As to `Cc1cc(C)nc(O[C@H](C(=O)O)[C@@]2(c3ccccc3)NCC(=O)N(Cc3cccc(Cl)c3)c3ccccc32)n1` (racemic), the IC50 in test [1] was 21.4 nM; at Endothelin-1 receptor it was 5.8 nM. For `Cc1cc(C)nc(O[C@H](C(=O)O)[C@@]2(c3ccccc3)NCC(=O)N(CCCC(=O)O)c3ccccc32)n1` (racemic), in that order: 253 nM and 45.9 nM.

`COc1ccc(CN2C(=O)CN[C@](c3cccc(OC)c3)([C@H](Oc3nc(C)cc(C)n3)C(=O)O)c3ccccc32)cc1` (racemic): the IC50 was determined as 94.3 nM in test [1] and 10.2 nM on Endothelin-1 receptor. For `COc1cc(OC)cc(O[C@H](C(=O)O)[C@@]2(c3ccccc3)NCC(=O)N(C)c3cc(OC)ccc32)c1` (racemic), in that order: 7780 nM and 3950 nM.

`Cc1cc(C)nc(O[C@H](C(=O)O)[C@@]2(c3ccccc3)NCC(=O)N(Cc3cccc(OC(F)(F)F)c3)c3ccccc32)n1` (racemic): the IC50 in test [1] is 30.8 nM; on Endothelin-1 receptor, 11 nM.

For the compound `COc1ccc(CN2C(=O)CN[C@](c3cccc(F)c3)([C@H](Oc3nc(C)cc(C)n3)C(=O)O)c3ccccc32)cc1` (racemic), the IC50 in test [1] worked out at 49.3 nM; on Endothelin-1 receptor, 9.1 nM. The like results for `Cc1cc(C)nc(O[C@H](C(=O)O)[C@@]2(c3ccccc3)NCC(=O)N(CC3CCCCC3)c3ccccc32)n1` (racemic) were, in that order, 82 nM and 83.4 nM. The like results for `CC(C)c1ccc(O[C@H](C(=O)O)[C@@]2(c3ccccc3)NCC(=O)N(Cc3c(Cl)cccc3Cl)c3ccccc32)cc1` (racemic) were, in that order, 8620 nM and greater than 10000 nM. For `COc1ccc(CN2C(=O)CN[C@](c3cc(C)cc(C)c3)([C@H](Oc3nc(C)cc(C)n3)C(=O)O)c3ccccc32)cc1` (racemic), in that order: 761 nM and 278 nM. `COc1cnc(O[C@H](C(=O)O)[C@@]2(c3ccccc3)NCC(=O)N(C)c3ccccc32)nc1` (racemic): the IC50 was found to be 9250 nM in test [1] and 384 nM on Endothelin-1 receptor. Turning to `Cc1cc(C)nc(O[C@H](C(=O)O)[C@@]2(c3ccccc3)NCC(=O)N(Cc3ccc(Br)cc3)c3ccccc32)n1` (racemic), the IC50 worked out at 119 nM in test [1] and 25.8 nM on Endothelin-1 receptor.

For the compound `Cc1cccc(CN2C(=O)CN[C@](c3ccccc3)([C@H](Oc3nc(C)cc(C)n3)C(=O)O)c3ccccc32)c1` (racemic), the figures for the IC50 (in test [1]; on Endothelin-1 receptor) were 16.7 nM and 5 nM, respectively. For `COCCOCN1C(=O)CN[C@](c2ccccc2)([C@H](Oc2nc(C)cc(C)n2)C(=O)O)c2ccccc21` (racemic), in that order: 47.8 nM and 7.5 nM. Consider `Cc1cc(C)nc(O[C@H](C(=O)O)[C@@]2(c3ccccc3)NCC(=O)N(Cc3ccc(C(=O)O)cc3)c3ccccc32)n1` (racemic), for which the figures for the IC50 (in test [1]; at Endothelin-1 receptor) were 3530 nM and 123 nM, respectively. For `Cc1cc(C)nc(O[C@H](C(=O)O)[C@@]2(c3ccccc3)NCCOc3ccccc32)n1` (racemic), in that order: 3640 nM and 69.8 nM.

Take `Cc1cc(C)nc(O[C@H](C(=O)O)[C@@]2(c3ccccc3)NCC(=O)N(Cc3cc(F)ccc3F)c3ccccc32)n1` (racemic): the IC50 in test [1] was 32.9 nM; on Endothelin-1 receptor it was 6.7 nM.

Consider `Cc1cc(C)nc(O[C@H](C(=O)O)[C@@]2(c3ccccc3)NCC(=O)N(Cc3ccccc3C(F)(F)F)c3ccccc32)n1` (racemic), for which the IC50 in test [1] turned out to be 22.5 nM; on Endothelin-1 receptor, 104 nM. The like results for `Cc1cccc(O[C@H](C(=O)O)[C@@]2(c3ccccc3)NCC(=O)N(Cc3c(Cl)cccc3Cl)c3ccccc32)c1C` (racemic) were, in that order, greater than 1000 nM and greater than 10000 nM. For the compound `Cc1cc(C)nc(O[C@H](C(=O)O)[C@@]2(c3ccccc3)NCC(=O)N(Cc3cccc(Br)c3)c3ccccc32)n1` (racemic), the IC50 in test [1] is 25.5 nM; at Endothelin-1 receptor, 6.4 nM. The like results for `Cc1cc(C)nc(O[C@H](C(=O)O)[C@@]2(c3ccccc3)NCC(=O)N(Cc3cccc(F)c3)c3ccccc32)n1` (racemic) were, in that order, 26.8 nM and 6.7 nM.

For the compound `Cc1ccccc1O[C@H](C(=O)O)[C@@]1(c2ccccc2)NCC(=O)N(Cc2c(Cl)cccc2Cl)c2ccccc21` (racemic), the IC50 (in test [1]; on Endothelin-1 receptor) was greater than 10000 nM each time. For the compound `O=C(O)[C@@H](Oc1cccc(Cl)c1)[C@@]1(c2ccccc2)NCC(=O)N(Cc2c(Cl)cccc2Cl)c2ccccc21` (racemic), the IC50 in test [1] came out at 3150 nM; at Endothelin-1 receptor it was 101 nM. In the case of `Cc1cc(C)nc(O[C@H](C(=O)O)[C@@]2(c3ccccc3)NCC(=O)N(Cc3cccc(F)c3F)c3ccccc32)n1` (racemic), the IC50 in test [1] came to 18.5 nM; at Endothelin-1 receptor it was 3.7 nM.

On to `Cc1cc(C)nc(O[C@H](C(=O)O)[C@@]2(c3ccccc3)NCCCc3ccccc32)n1` (racemic), for which the IC50 in test [1] was 7840 nM; at Endothelin-1 receptor, 91.7 nM. Regarding `Cc1cc(C)nc(O[C@H](C(=O)O)[C@@]2(c3ccccc3)NCC(=O)N(Cc3ccccc3OC(F)(F)F)c3ccccc32)n1` (racemic), the IC50 in test [1] turned out to be 74.9 nM; at Endothelin-1 receptor it was 98.6 nM. As for `CN1C(=O)CN[C@](c2ccccc2)([C@H](Oc2ncccn2)C(=O)O)c2ccccc21` (racemic), the IC50 in test [1] was greater than 10000 nM. Take `Cc1cc(C)nc(O[C@H](C(=O)O)[C@@]2(c3ccccc3)NCC(=O)N(Cc3ccc(F)cc3F)c3ccccc32)n1` (racemic): the results for the IC50 (in test [1]; at Endothelin-1 receptor) were 109 nM and 6 nM, respectively. For `Cc1cc(C)nc(O[C@H](C(=O)O)[C@@]2(c3ccccc3)NCC(=O)N(Cc3ccc(-c4ccccc4)cc3)c3ccccc32)n1` (racemic), in that order: 534 nM and 102 nM.

Turning to `COc1ccc(CN2C(=O)CN[C@](c3cccc(Cl)c3)([C@H](Oc3nc(C)cc(C)n3)C(=O)O)c3ccccc32)cc1` (racemic), the figures for the half-maximal inhibitory concentration (IC50) (in test [1]; on Endothelin-1 receptor) were 78.2 nM and 25 nM, respectively. For `COc1cc(OC)cc(O[C@H](C(=O)O)[C@@]2(c3ccccc3)NCC(=O)N(C)c3cc(OC)c(OC)cc32)c1` (racemic), in that order: 8030 nM and 443 nM. The like results for `Cc1cc(C)nc(O[C@H](C(=O)O)[C@@]2(c3ccccc3)NCC(=O)N(CCC3CCCCC3)c3ccccc32)n1` (racemic) were, in that order, 153 nM and 146 nM.

In the case of `COc1ccc(CN2C(=O)CN[C@](c3cccc(C(F)(F)F)c3)([C@H](Oc3nc(C)cc(C)n3)C(=O)O)c3ccccc32)cc1` (racemic), the IC50 stood at 241 nM in test [1] and 24.9 nM at Endothelin-1 receptor. The like results for `Cc1cc(C)nc(O[C@H](C(=O)O)[C@@]2(c3ccccc3)NCC(=O)N(CCN3CCOCC3)c3ccccc32)n1` (racemic) were, in that order, 743 nM and 126 nM.

Take `Cc1cc(C)nc(O[C@H](C(=O)O)[C@@]2(c3ccccc3)NCc3nnc(C)n3-c3ccccc32)n1` (racemic): the IC50 in test [1] turned out to be 250 nM. Still for that read-out and setting: the value for `COc1cc(OC)cc(O[C@H](C(=O)O)[C@@]2(c3ccccc3)NCC(=O)N(C)c3ccccc32)c1` (racemic) was 6270 nM. The same measure, in the same setting: the value for `COc1ccc(CN2C(=O)CN[C@](c3ccccc3F)([C@H](Oc3nc(C)cc(C)n3)C(=O)O)c3ccccc32)cc1` (racemic) was 80.2 nM.
